From EP0703239A1, “Aminomethylphosphonic and aminomethylphosphinic acids derivatives and their use in the treatment of degenerative articular diseases” (priority 1994, dated 1996)
Where a name gives a salt, the structure may show the parent alone. Read-outs that look alike come from different tables or passages of the source.

Legend:
Chondrozyten [1] = assay: IL-1-induced chondrocytic chondrolysis in chondrocyte agarose culture, 35S-sulfate incorporation; settings: agarose cell culture with 5 u/ml human rec. IL-1 alpha; factor relative to IL-1 treated control
Rattenlebermikrosomen = assay: Inhibition of microsomal lipid peroxidation (malondialdehyde/thiobarbituric acid); type: biochemical, Ratte; settings: rat liver microsomes, FeSO₄ start, 10 min 37°C; read-out: IC50 Mikrosomale Lipidperoxidation
Protocol: 4. Hemmung der Mikrosomalen Lipidperoxidation […]
Alle Schritte werden bei 0°C durchgeführt. Die Leber einer Ratte wird, um alles Hämoglobin zu entfernen, mit 0,9 % NaCl-Lösung gründlich gespült. Die grob zerkleinerte Leber wird dann in 10 mM Tris/HCl pH 7,4; 250 mM Saccharose (10 ml Puffer/g Leber) gepottert. Zunächst wird 5 Minuten bei 600xg zentrifugiert. Der Überstand wird dann 10 min bei 12000xg zentrifugiert und wird mit festem CaCl₂ (117,6 mg/100 ml) auf eine Konzentration von 8 mM eingestellt. Durch Zentrifugieren bei 25000 xg (15 min) wird ein Mikrosomenniederschlag gewonnen. Dieser Niederschlag wird im gleichen Volumen Puffer (10 mM Tris/HCl pH 7,4; 150 mM KCl) rehomogenisiert und erneut 15 min bei 25000 xg zentrifugiert.
Ein Testansatz besteht aus 20 µl Mikrosomen (100 mg/ml), vgl. oben, gelöst in Puffer (250 mM Tris/HCl pH 6,6, 750 mM KCl), 10 µl 50 mM MgCl₂, 10 µl 200 mM Isocitronensäure, 10 µl 4mM NADP (3,028 mg/ml Wasser), 10 µl 25 mM Niacinamid, 10 µl Isocitratdehydrogenase (1:100 verdünnt) und 20 µl Wasser oder Testsubstanz. Gestartet wird die Reaktion mit 10 µl 0,25 mM FeSO₄. Die Inkubation dauert 10 Minuten und erfolgt bei 37°C. Gestoppt wird mit 500 µl eiskalter 20 %iger Trichloressigsäure. Entstandenes Malondialdehyd wird durch Zugabe von 500 µl 0,67 %iger Thiobarbitursäure und 30 Minuten Inkubation bei 90°C in eine pinkfarbene Verbindung überführt, die bei 532 nm gemessen wird. Die Extinktion im Kontrollansatz ohne Prüfpräparat wird auf 0 % Hemmung gesetzt, während das völlige Verschwinden des Signals 100 % Hemmung bedeutet.

Chondrozyten [2] = assay: Stimulation of cartilage matrix (proteoglycan) synthesis in chondrocyte agarose culture, 35S-sulfate incorporation; type: cell-based, Rinder; settings: Chondrocyte, read-out: Stimulationsfaktor der Proteoglykansynthese
From the text: 1. Wirksamkeit in der Synthese-Stimulierung von Knorpel-Matrix, Prüfung in der Chondrozyten-Kultur
Zellen: Den Fußgelenken frisch geschlachteter Rinder werden der hyaline Knorpel entnommen, mit Pronase (Boehringer Mannheim) und Collagenase (Sigma), die native Matrix enzymatisch abgebaut, und die Chondrozyten in 1 %iger "low melting Agarose" in 24er Multiwell-Schalen in einer Zelldichte von 4 x 10⁶ pro well ausplattiert.
Medium: Komplettes Medium enthält HAM's F12 (Biochrom KG, Berlin) und 10 % foetales Kälberserum (Boehringer Mannheim), die Testsubstanz wird in Medium gelöst, üblicherweise in einer Konzentration von 10⁻⁵ M zugegeben und bei jedem Mediumwechsel erneut zugefügt.
Versuchsdurchführung: Die Behandlung erfolgt vom dritten bis zehnten Tag der Primärkultur, am 9. […] Die dissoziative Extraktion der Proteoglykane aus der Agarose-Schicht wird mit 8M Guanidinium-Hydrochlorid und beigefügten Proteinase-Inhibitoren (Sigma) unter Schütteln bei 4° C über 24 h durchgeführt. Der Überstand wird nach Zentrifugation über eine PD 10 ®Sephadex G 25 Säule in freies und inkorporiertes Sulfat getrennt, dessen Aktivität nach Aliquotierung im β-Szintillationscounter gemessen wird.
Auswertung: Der Parameter für die Matrixproduktion der Chondrozyten ist die Menge synthetisierter Proteoglykane, gemessen als Sulfatinkorporation in cpm. Aus vier Wells pro Gruppe wird der Mittelwert errechnet. Dieser wird durch den Mittelwert der unbehandelten Kontrolle dividiert, und ergibt somit einen Stimulationsfaktor, der bei Stimulation der Matrixsynthese größer 1 ist, bei Hemmung derselben durch Substanzwirkung kleiner 1, und bei unveränderter Matrixsynthese gleich 1 ist.
Als Standard wird Diacerein eingesetzt, das unter dem Markennamen "Artodar" von der Firma Proter bzw. […] Tabelle II

[3] = agarose cell culture, test substance usually 10⁻⁵ M, mean sulfate incorporation divided by untreated control (>1 = stimulation)

SMILES | Stimulationsfaktor der Proteoglykansynthese (Chondrozyten [1]) | IC50 (Rattenlebermikrosomen) [nM] | fold induction at 10 µM (Chondrozyten [2]; [3]) | fold induction at 10 µM (Chondrozyten [2])
CC(C)(C)c1cc(C(Nc2ccc(Cl)cc2)P(=O)(Oc2ccccc2)Oc2ccccc2)cc(C(C)(C)C)c1O (centres unmarked) [Beispiel 47] | 1,8 |  |  | 
C=CCOP(=O)(OCC=C)C(Nc1ccc(Cl)cc1)c1cc(C(C)(C)C)c(O)c(C(C)(C)C)c1 (centres unmarked) [Beispiel 46] |  | 860 |  | 
CC(C)(C)c1cc(C(NCc2ccccc2)[PH](=O)O)cc(C(C)(C)C)c1O (centres unmarked) [Beispiel 27] | 1,2 |  |  | 
COP(=O)(OC)C(Nc1ccc(Cl)cc1)c1cc(C(C)(C)C)c(O)c(C(C)(C)C)c1 (centres unmarked) [Beispiel 43] | 1,4 | 790 |  | 
CCCCOP(=O)(OCCCC)C(Nc1ccc2ccccc2c1)c1cc(C(C)(C)C)c(O)c(C(C)(C)C)c1 (centres unmarked) [Beispiel 77] | 1,3 | 8700 |  | 
CCCCOP(=O)(OCCCC)C(NC1CCCCC1)c1cc(C(C)(C)C)c(O)c(C(C)(C)C)c1 (centres unmarked) [Beispiel 10] | 1,5 | 9000 |  | 
CCCOP(=O)(OCCC)C(NCc1ccc2c(c1)OCO2)c1cc(C(C)(C)C)c(O)c(C(C)(C)C)c1 (centres unmarked) [Beispiel 2, 1-(3,4-Methylendioxybenzylamino)-1-(3,5-di-tert.butyl-4-hydroxy-phenyl)methanphosphonsäure-di-n-propylester-hydrochlorid] | 4,3 | 2300 | 1.2 | 
CCOP(=O)(OCC)C(Nc1ccc(OC)cc1)c1cc(C(C)(C)C)c(O)c(C(C)(C)C)c1 (centres unmarked) [Beispiel 57] | 1,4 |  |  | 1.5
CC(C)(C)c1cc(C(Nc2ccccc2)[PH](=O)O)cc(C(C)(C)C)c1O (centres unmarked) [Beispiel 36] | 2,5 |  | 1.2 | 
CCOP(=O)(OCC)C(Nc1ccc(F)cc1)c1cc(C(C)(C)C)c(O)c(C(C)(C)C)c1 (centres unmarked) [Beispiel 38] | 1,3 |  |  | 1.7
CCOP(=O)(OCC)C(Nc1ccc(C(=O)OC)cc1)c1cc(C(C)(C)C)c(O)c(C(C)(C)C)c1 (centres unmarked) [Beispiel 66] |  | 750 |  | 
CCCOP(=O)(OCCC)C(NC1CCCCC1)c1cc(C(C)(C)C)c(O)c(C(C)(C)C)c1 (centres unmarked) [Beispiel 9] |  | 2100 |  | 
CCOP(=O)(OCC)C(c1cc(C(C)(C)C)c(O)c(C(C)(C)C)c1)N(C)c1ccc(Cl)cc1 (centres unmarked) [Beispiel 54] | 1,4 | 2800 |  | 
CC(C)(C)c1cc(C(NCc2ccc3c(c2)OCO3)[PH](=O)O)cc(C(C)(C)C)c1O (centres unmarked) [Beispiel 28] | 5,5 |  |  | 
CCOP(=O)(OCC)C(Nc1ccc(C(F)(F)F)cc1)c1cc(C(C)(C)C)c(O)c(C(C)(C)C)c1 (centres unmarked) [Beispiel 51] |  |  |  | 1.6
CCOP(=O)(OCC)C(Nc1cc(C(F)(F)F)ccc1F)c1cc(C(C)(C)C)c(O)c(C(C)(C)C)c1 (centres unmarked) [Beispiel 52] |  |  |  | 1.7
CCOP(=O)(OCC)C(Nc1ccc(NC(=N)N)cc1)c1cc(C(C)(C)C)c(O)c(C(C)(C)C)c1 (centres unmarked) [Beispiel 73] |  | 670 |  | 
COP(=O)(OC)C(NCc1ccc2c(c1)OCO2)c1cc(C(C)(C)C)c(O)c(C(C)(C)C)c1 (centres unmarked) [Beispiel 29] | 1,5 | 690 |  | 
CC(=O)Oc1cccc2c1C(=O)c1c(OC(C)=O)cc(C(=O)O)cc1C2=O [Diacerein, reference compound] | 1,1 |  | 1 | 
CCN(CC)CCNC(c1cc(C(C)(C)C)c(O)c(C(C)(C)C)c1)[PH](=O)O (centres unmarked) [Beispiel 14] | 1,2 |  |  | 
CCOP(=O)(OCC)C(Nc1ccc2ccccc2c1)c1cc(C(C)(C)C)c(O)c(C(C)(C)C)c1 (centres unmarked) [Beispiel 76] |  | 2050 |  | 
CCOP(=O)(OCC)C(Nc1ccc2c(c1)CCCC2)c1cc(C(C)(C)C)c(O)c(C(C)(C)C)c1 (centres unmarked) [Beispiel 75] |  | 2900 |  | 
CCOP(=O)(OCC)C(NCc1ccc(Cl)cc1)c1cc(C(C)(C)C)c(O)c(C(C)(C)C)c1 (centres unmarked) [Beispiel 33] | 2,2 |  |  | 

SMILES | Stimulationsfaktor der Proteoglykansynthese (Chondrozyten [1]) | IC50 (Rattenlebermikrosomen) [nM] | fold induction at 10 µM (Chondrozyten [2]; [3]) | fold induction at 10 µM (Chondrozyten [2])
CC(C)(C)c1cc(C(Nc2ccc(Cl)cc2)P(=O)(O)O)cc(C(C)(C)C)c1O (centres unmarked) [Beispiel 4] |  | 710 |  | 
CCOP(=O)(O)C(Nc1ccccn1)c1cc(C(C)(C)C)c(O)c(C(C)(C)C)c1 (centres unmarked) [Beispiel 78] |  |  |  | 1.4
CCOP(=O)(OCC)C(NC(C)C(=O)OC)c1cc(C(C)(C)C)c(O)c(C(C)(C)C)c1 (centres unmarked) [Beispiel 19] | 4,3 |  |  | 
CCOP(=O)(OCC)C(NCc1ccc2c(c1)OCO2)c1cc(C(C)(C)C)c(O)c(C(C)(C)C)c1 (centres unmarked) [Beispiel 30] | 1,5 |  |  | 1.4
CCOP(=O)(OCC)C(Nc1ccc(OC)c(OC)c1)c1cc(C(C)(C)C)c(O)c(C(C)(C)C)c1 (centres unmarked) [Beispiel 58] | 1,2 |  |  | 2.5
CC(C)(C)c1cc(C(Nc2ccc(Cl)cc2)[PH](=O)O)cc(C(C)(C)C)c1O (centres unmarked) [Beispiel 40] | 2,1 | 490 |  | 
CCOP(=O)(OCC)C(NC1CCCCCC1)c1cc(C(C)(C)C)c(O)c(C(C)(C)C)c1 (centres unmarked) [Beispiel 11] |  | 970 |  | 
CCOP(=O)(OCC)C(NCc1ccc(OC)cc1)c1cc(C(C)(C)C)c(O)c(C(C)(C)C)c1 (centres unmarked) [Beispiel 32] | 1,4 |  |  | 
CCOP(=O)(OCC)C(Nc1ccc(Cl)c(Cl)c1)c1cc(C(C)(C)C)c(O)c(C(C)(C)C)c1 (centres unmarked) [Beispiel 48] | 1,7 | 2950 |  | 
CCOP(=O)(OCC)C(NCc1ccc(C#N)cc1)c1cc(C(C)(C)C)c(O)c(C(C)(C)C)c1 (centres unmarked) [Beispiel 35] | 3,9 |  |  | 
CCOP(=O)(OCC)C(Nc1ccc(S(N)(=O)=O)cc1)c1cc(C(C)(C)C)c(O)c(C(C)(C)C)c1 (centres unmarked) [Beispiel 68] | 1,3 | 2370 |  | 
CCOP(=O)(OCC)C(NC1CCN(Cc2ccccc2)CC1)c1cc(C(C)(C)C)c(O)c(C(C)(C)C)c1 (centres unmarked) [Beispiel 18] |  | 2030 |  | 
CCOP(=O)(OCC)C(NC(CC(C)C)C(=O)OC)c1cc(C(C)(C)C)c(O)c(C(C)(C)C)c1 (centres unmarked) [Beispiel 20] |  | 2100 |  | 
CCOP(=O)(OCC)C(NC1CC(C)(C)NC(C)(C)C1)c1cc(C(C)(C)C)c(O)c(C(C)(C)C)c1 (centres unmarked) [Beispiel 17] |  | 3180 |  | 
CCCOP(=O)(OCCC)C(Nc1ccc(Cl)cc1)c1cc(C(C)(C)C)c(O)c(C(C)(C)C)c1 (centres unmarked) [Beispiel 44] | 1,5 | 1050 |  | 
CCOP(=O)(OCC)C(Nc1ccccc1C(=O)OC)c1cc(C(C)(C)C)c(O)c(C(C)(C)C)c1 (centres unmarked) [Beispiel 65] |  | 730 |  | 1.3
CCCN(CCC)C(c1cc(C(C)(C)C)c(O)c(C(C)(C)C)c1)P(=O)(OCC)OCC (centres unmarked) [Beispiel 21] |  | 6350 |  | 
CCOP(=O)(OCC)C(Nc1ccccc1Cl)c1cc(C(C)(C)C)c(O)c(C(C)(C)C)c1 (centres unmarked) [Beispiel 39] |  | 2400 |  | 
CCOP(=O)(OCC)C(NC1CCCCC1)c1cc(C(C)(C)C)c(O)c(C(C)(C)C)c1 (centres unmarked) [Beispiel 8] |  | 730 |  | 1.2
CCOP(=O)(OCC)C(NCc1ccc(N)cc1)c1cc(C(C)(C)C)c(O)c(C(C)(C)C)c1 (centres unmarked) [Beispiel 34] |  | 700 |  | 1.2
CC(C)(C)c1cc(C(Nc2ccc(Cl)cc2)P(C)(=O)O)cc(C(C)(C)C)c1O (centres unmarked) [Beispiel 41] | 3,5 |  |  | 
CCOP(=O)(OCC)C(Nc1ccccc1)c1cc(C(C)(C)C)c(O)c(C(C)(C)C)c1 (centres unmarked) [Beispiel 37] | 1,5 |  |  | 
